# Laboratory results reported in patent US20210045385A1, “PYRIDAZINONE-SUBSTITUTED KETOXIMES AS HERBICIDES” (FMC Corporation, priority 2018, published 2021).
# Experiments:
# Assay type in all cases: in vivo
# [1] = system: ragweed (common ragweed, Ambrosia artemisiifolia); test: Test C preemergence, visual plant response rating; settings: Test C, 0 is no effect, 100 is complete control
# Method in brief: (§1)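 Seeds sown in a loam–sand blend got a directed preemergence soil spray; postemergence plants (2–10 cm, one- to two-leaf stage) were sprayed with compound in a non-phytotoxic solvent plus surfactant. Injury was scored visually against untreated controls after about 10 d in a greenhouse on a 0–100 scale (100 = complete control).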
# [2] = system: Italian ryegrass (Lolium mutiflorum); test: Test C preemergence, visual plant response rating; settings: Test C, 0 is no effect, 100 is complete control
# Method in brief: as §1
# kochia (Bassia scoparia) [3] = test: Test C preemergence, visual plant response rating; settings: Test C, 0 is no effect, 100 is complete control
# Method in brief: as §1
# [4] = system: foxtail, giant (giant foxtail, Setaria faberi); test: Test C preemergence, visual plant response rating; settings: Test C, 0 is no effect, 100 is complete control
# Method in brief: as §1
# [5] = system: barnyardgrass (Echinochloa crus-galli); test: Test C preemergence, visual plant response rating; settings: Test C, 0 is no effect, 100 is complete control
# Method in brief: as §1
# [6] = system: pigweed (Amaranthus retroflexus); test: Test C preemergence, visual plant response rating; settings: Test C, 0 is no effect, 100 is complete control
# Method in brief: as §1
# [7] = system: ragweed (common ragweed, Ambrosia artemisiifolia); test: Test C postemergence, visual plant response rating
# Method in brief: as §1
# [8] = system: blackgrass (Alopecurus myosuroides); test: Test C postemergence, visual plant response rating
# Method in brief: as §1
# [9] = system: wheat (Triticum aestivum); test: Test C postemergence, visual plant response rating
# Method in brief: as §1
# [10] = system: Italian ryegrass (Lolium mutiflorum); test: Test C postemergence, visual plant response rating
# Method in brief: as §1
# kochia (Bassia scoparia) [11] = test: Test C postemergence, visual plant response rating
# Method in brief: as §1
# [12] = system: galium (catchweed bedstraw, Galium aparine); test: Test C postemergence, visual plant response rating
# Method in brief: as §1
# corn (Zea mays) = test: Test C postemergence, visual plant response rating
# Method in brief: as §1
# [13] = system: foxtail, giant (giant foxtail, Setaria faberi); test: Test C postemergence, visual plant response rating
# Method in brief: as §1
# [14] = system: barnyardgrass (Echinochloa crus-galli); test: Test C postemergence, visual plant response rating
# Method in brief: as §1
# [15] = system: pigweed (Amaranthus retroflexus); test: Test C postemergence, visual plant response rating
# Method in brief: as §1
# rice (Oryza sativa) = test: Test D flooded paddy test, visual plant response rating; settings: 250 g ai/ha, scale 0 to 100 (0 no effect, 100 complete control), 13 to 15 d
# Method in brief: (§2)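 Greenhouse paddy assay scored on a 0–100 visual scale after 13 to 15 d, where 100 means complete control and a dash marks no result; dosing was into 3 cm floodwater over 2-leaf plants.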
# [16] = system: sedge umbrella (small-flower umbrella sedge, Cyperus difformis); test: as above; settings: 250 g ai/ha, scale 0 to 100 (0 no effect, 100 complete control), 13 to 15 d
# Method in brief: as §2
# [17] = system: barnyardgrass (Echinochloa crus-galli); test: as above; settings: 250 g ai/ha, scale 0 to 100 (0 no effect, 100 complete control), 13 to 15 d
# Method in brief: as §2
# [18] = system: duck salad (Heteranthera limosa); test: as above; settings: 250 g ai/ha, scale 0 to 100 (0 no effect, 100 complete control), 13 to 15 d
# Method in brief: as §2
# [19] = Test C, postemergence, 125 g ai/ha
SMILES,Ragweed plant response rating (0 to 100 scale) ([1]; 31 g ai/ha),Ragweed plant response rating (0 to 100 scale) ([1]; 125 g ai/ha),"Ryegrass, Italian plant response rating (0 to 100 scale) ([2]; 31 g ai/ha)","Ryegrass, Italian plant response rating (0 to 100 scale) ([2]; 125 g ai/ha)",Kochia plant response rating (0 to 100 scale) (kochia (Bassia scoparia) [3]; 31 g ai/ha),Kochia plant response rating (0 to 100 scale) (kochia (Bassia scoparia) [3]; 125 g ai/ha),"Foxtail, Giant plant response rating (0 to 100 scale) ([4]; 31 g ai/ha)","Foxtail, Giant plant response rating (0 to 100 scale) ([4]; 125 g ai/ha)",Barnyardgrass plant response rating (0 to 100 scale) ([5]; 31 g ai/ha),Barnyardgrass plant response rating (0 to 100 scale) ([5]; 125 g ai/ha),Pigweed plant response rating (0 to 100 scale) ([6]; 31 g ai/ha),Pigweed plant response rating (0 to 100 scale) ([6]; 125 g ai/ha),"Ragweed plant response rating (0 to 100 scale) ([7]; Postemergence, 31 g ai/ha)","Ragweed plant response rating (0 to 100 scale) [7, 19]","Blackgrass plant response rating (0 to 100 scale) ([8]; Postemergence, 31 g ai/ha)","Blackgrass plant response rating (0 to 100 scale) [8, 19]","Wheat plant response rating (0 to 100 scale) ([9]; Postemergence, 31 g ai/ha)","Wheat plant response rating (0 to 100 scale) [9, 19]","Ryegrass, Italian plant response rating (0 to 100 scale) ([10]; Postemergence, 31 g ai/ha)","Ryegrass, Italian plant response rating (0 to 100 scale) [10, 19]",other results
CON=C(c1cccc(OC(F)F)c1)c1c(O)c(C)nn(C)c1=O [Compound 202],0,10,0,10,0,0,0,0,0,0,0,0,0,20,0,0,0,0,10,30,"Kochia plant response rating (0 to 100 scale) (kochia (Bassia scoparia) [11]; Postemergence, 31 g ai/ha): 10; Kochia plant response rating (0 to 100 scale) (kochia (Bassia scoparia) [11]; [19]): 40; Galium plant response rating (0 to 100 scale) ([12]; Postemergence, 31 g ai/ha): 40; Galium plant response rating (0 to 100 scale) [12, 19]: 70; Corn plant response rating (0 to 100 scale) (corn (Zea mays); Postemergence, 31 g ai/ha): 0; Corn plant response rating (0 to 100 scale) (corn (Zea mays); [19]): 0; Foxtail, Giant plant response rating (0 to 100 scale) ([13]; Postemergence, 31 g ai/ha): 0; Foxtail, Giant plant response rating (0 to 100 scale) [13, 19]: 0; Barnyardgrass plant response rating (0 to 100 scale) ([14]; Postemergence, 31 g ai/ha): 0; Barnyardgrass plant response rating (0 to 100 scale) [14, 19]: 10; Pigweed plant response rating (0 to 100 scale) ([15]; Postemergence, 31 g ai/ha): 20; Pigweed plant response rating (0 to 100 scale) [15, 19]: 60; Plant response rating, Rice (Flood) (rice (Oryza sativa)): 0; Plant response rating, Sedge, Umbrella (Flood) [16]: 0; Plant response rating, Barnyardgrass (Flood) [17]: 0; Plant response rating, Ducksalad (Flood) [18]: 0"
CCCCON=C(c1cc(Cl)cc(Cl)c1Cl)c1c(O)c(C)nn(C)c1=O [Compound 268],10,60,20,90,0,0,70,100,30,70,0,0,70,100,0,20,0,20,60,100,"Kochia plant response rating (0 to 100 scale) (kochia (Bassia scoparia) [11]; Postemergence, 31 g ai/ha): 10; Kochia plant response rating (0 to 100 scale) (kochia (Bassia scoparia) [11]; [19]): 20; Galium plant response rating (0 to 100 scale) ([12]; Postemergence, 31 g ai/ha): 20; Galium plant response rating (0 to 100 scale) [12, 19]: 50; Corn plant response rating (0 to 100 scale) (corn (Zea mays); Postemergence, 31 g ai/ha): 0; Corn plant response rating (0 to 100 scale) (corn (Zea mays); [19]): 30; Foxtail, Giant plant response rating (0 to 100 scale) ([13]; Postemergence, 31 g ai/ha): 60; Foxtail, Giant plant response rating (0 to 100 scale) [13, 19]: 90; Barnyardgrass plant response rating (0 to 100 scale) ([14]; Postemergence, 31 g ai/ha): 50; Barnyardgrass plant response rating (0 to 100 scale) [14, 19]: 60; Pigweed plant response rating (0 to 100 scale) ([15]; Postemergence, 31 g ai/ha): 10; Pigweed plant response rating (0 to 100 scale) [15, 19]: 20; Plant response rating, Rice (Flood) (rice (Oryza sativa)): 0; Plant response rating, Sedge, Umbrella (Flood) [16]: 0; Plant response rating, Barnyardgrass (Flood) [17]: 0; Plant response rating, Ducksalad (Flood) [18]: 0"
C#CCO/N=C(/c1cccc(Br)c1)c1c(O)c(C)nn(C)c1=O [Compound 277],20,80,10,100,0,90,10,30,0,30,10,70,40,90,30,80,30,70,40,70,"Kochia plant response rating (0 to 100 scale) (kochia (Bassia scoparia) [11]; Postemergence, 31 g ai/ha): 50; Kochia plant response rating (0 to 100 scale) (kochia (Bassia scoparia) [11]; [19]): 70; Galium plant response rating (0 to 100 scale) ([12]; Postemergence, 31 g ai/ha): 70; Galium plant response rating (0 to 100 scale) [12, 19]: 80; Corn plant response rating (0 to 100 scale) (corn (Zea mays); Postemergence, 31 g ai/ha): 10; Corn plant response rating (0 to 100 scale) (corn (Zea mays); [19]): 30; Foxtail, Giant plant response rating (0 to 100 scale) ([13]; Postemergence, 31 g ai/ha): 10; Foxtail, Giant plant response rating (0 to 100 scale) [13, 19]: 60; Barnyardgrass plant response rating (0 to 100 scale) ([14]; Postemergence, 31 g ai/ha): 20; Barnyardgrass plant response rating (0 to 100 scale) [14, 19]: 60; Pigweed plant response rating (0 to 100 scale) ([15]; Postemergence, 31 g ai/ha): 40; Pigweed plant response rating (0 to 100 scale) [15, 19]: 60; Plant response rating, Rice (Flood) (rice (Oryza sativa)): 0; Plant response rating, Sedge, Umbrella (Flood) [16]: 0; Plant response rating, Barnyardgrass (Flood) [17]: 0; Plant response rating, Ducksalad (Flood) [18]: 0"
